Measurements: patent US12730111B2, “Systems, methods, and compositions to identify new protein targets of a chemical compound or its derivatives” (priority 2019, dated 2026)

Experiments:
PC-9 cells = test: Afatinib labeling of proteins in PC-9 cells (anti-afatinib immunoblot); settings: 1 h
Description: The control groups were treated with the same volume of DMSO.

[1] = test system: protein asymmetric dimethylarginine (ADMA) in HeLa cells; test: Protein ADMA levels in cultured HeLa cells (immunoblot); type: cell-based; settings: for levels of protein ADMA in cell culture: 50 μM, short-term treatment
Description: Each group contained the same volume of DMSO and ethanol. After wash with TBS for three times, the cells were lysed with 900 μL RIPA lysis buffer and centrifuged to pellet down the debris. The supernatant was then transferred to a new tube and mixed with equal volume of 2×SDS sample buffer. Ten μL sample solution was for electrophoresis and immunoblotting. The signal of anti-GAPDH was used to adjust the amount of protein loading.
Since Bay 11-7082 inhibited PRMT1 activity in an in vitro assay, we then tested the inhibitory activity of this compound in cultured HeLa cells. The levels of ADMA are regulated by both methylation and demethylation. […] Some proteins of ADMA persisted several days in the absence of PRMT1. […] We also used histone H4R3 asymmetric dimethylation antibody as one kind of pan ADMA antibody (right panel, Supplementary FIG. 5). However, we noticed that the ADMA signals of one or two proteins increased in this experiment possibly due to the compensation activity caused by other PRMT family proteins (39) or disturbance of cell cycle progression affected by other target proteins of Bay 11-7082 (40). It is of interest to note that phenylsulfonyl structure present in Bay 11-7082 is also found in a PRMT1 inhibitor, C-7280948 (41), indicating the Bay 11-7082 could be a good lead compound for developing PRMT1 inhibitors. […] We included another Bay 11-7082 analog, Bay 11-7085 for comparison (42, 43).

recombinant PRMT1 = target: T1, recombinant PRMT1 (Homo sapiens, UniProt Q99873); test: In vitro PRMT1 activity assay (histone H4 methylation, immunoblot); type: biochemical; settings: for concentration that caused significant inhibition of methylation of histone H4: recombinant PRMT1, histone H4, S-adenosylmethionine; for IC50: three-point curve fit (5, 10, 100 μM), an estimation, read-out: IC50 (PRMT1, histone H4 as substrate)
T1 construct: purchased BPS Bioscience
Description: Three-point IC50 curves may provide an estimation, but certainly not an accurate calculation (data is not shown).

[2] = test system: PVS tagging of cysteine thiol groups of cellular proteins in HeLa cells; test: Competition of PVS tagging in HeLa cells or lysate (anti-PVS immunoblot); type: cell-based
Description: HeLa cells were treated with 10 μM to 1 mM PVS in PBS for 1 h or with 0.1-2 mM PVD in PBS for 30 min. In the case of PVS and PVD combined treatment, HeLa cells were pretreated with PVD for 30 min and then treated with PVS in PBS for 1 h.
Based on the observations that PVS and PVSN were PTP covalent inhibitors (22), we attempted to develop an antiserum against PVS and use the antiserum in the identification of PVS-tagged proteins through immunoblotting and immunoprecipitation. First, we confirmed the inhibitory activity of PVS on PTPs and tested the efficacy of our antiserum against PVS. […] Higher concentrations of PVS elicited higher levels of PVS modification, but with the same pattern. […] Specificity of the anti-PVS was further tested by the combined treatment of ethyl vinyl sulfone (EVS) and PVS. HeLa cells were pretreated with 10 μM to 1 mM EVS in PBS for 30 min and then treated with 100 μM PVS in PBS for 1 h.
Pervanadate is an irreversible PTP inhibitor by oxidizing the active-site cysteine thiol of PTPs (24). If both PVS and pervanadate target the same thiol group, pretreatment of pervanadate would hinder the tagging of PVS. […] Next, we tested the competition of BVT 948 and NSC 95397 on the tagging of PVS. BVT 948 (25) and NSC 95397 (26) are PTP and dual specificity phosphatase inhibitors, respectively. Treatment of both drugs elicited increased amounts of tyrosine phosphorylation, albeit with different sensitivity and pattern.
HeLa cells were cultured to about 90% confluence on a 10-cm dish in DMEM with 10% FBS (5×10^6~1×10^7 cells). HeLa cells were lysed by repeated pipetting with 900 μL 2% Triton X-100 in 20 mM Tris-HCl, pH 8.0. The lysate was centrifuged at 12,000×g for 10 min and the supernatant was aliquoted (200 μL) and treated with PVS, PVSN, or Bay 11-7082 of various concentrations at room temperature for 5 to 60 min. The stocks of 1000×PVS, 1000×PVSN, and 1000× Bay 11-7082 were prepared in DMSO. The reaction was stopped by adding 1,4-dithioerythreitol to a final concentration of 10 mM. The reaction solution was then mixed with equal volume of 2× SDS sample buffer. Ten μL sample solution was used for SDS gel electrophoresis and immunoblotting. The signal of GAPDH was used to adjust the amount of protein loading.

recombinant RRM1 or RRM2 = test: Competition of afatinib labeling of recombinant RNR subunits; settings: pretreatment 2.5 mM, then 10 μM afatinib
[3] = target: T2, Recombinant glutathione reductase (Homo sapiens, UniProt P00390); test: In vitro enzyme activity of glutathione reductase; type: biochemical
T2 construct: purchased BioVision
T2 sequence (P00390 44-522): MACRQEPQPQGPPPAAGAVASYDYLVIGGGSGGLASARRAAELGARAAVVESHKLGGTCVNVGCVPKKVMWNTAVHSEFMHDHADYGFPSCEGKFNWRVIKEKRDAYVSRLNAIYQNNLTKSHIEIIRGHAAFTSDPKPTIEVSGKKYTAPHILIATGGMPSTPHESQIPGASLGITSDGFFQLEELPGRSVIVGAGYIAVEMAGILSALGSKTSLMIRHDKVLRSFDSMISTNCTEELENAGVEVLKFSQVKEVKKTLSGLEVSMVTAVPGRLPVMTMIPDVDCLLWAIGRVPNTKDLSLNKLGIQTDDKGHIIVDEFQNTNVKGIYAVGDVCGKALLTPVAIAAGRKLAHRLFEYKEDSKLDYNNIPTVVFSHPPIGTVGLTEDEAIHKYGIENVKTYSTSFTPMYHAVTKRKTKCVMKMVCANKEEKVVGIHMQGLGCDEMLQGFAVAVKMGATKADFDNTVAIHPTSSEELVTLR
Description: Recombinant glutathione reductase was first treated with NADPH and 10 or 50 μM PVS, PVSN or Bay 11-7082 for 1 h at room temperature. In the control group, recombinant glutathione reductase was treated with NADPH and the same volume of DMSO used in the treatment of drugs in the assay buffer. Following the addition of oxidized glutathione, the decrease in absorbance at A340 was monitored over 10 min. Results were presented as mean of three independent experiments plus and minus standard deviation.
The assay was carried out according to the protocol provided by BioVision Inc. (Catalog number K761-200). Recombinant glutathione reductase was first treated with NADPH and 10 μM or 50 μM PVS, PVSN or Bay11-7082 for 30 min at room temperature. In the control group, recombinant glutathione reductase was treated with NADPH and the same volume of DMSO used in the treatment of drugs in the assay buffer. Following the addition of oxidized glutathione, the decrease in absorbance at A340 was monitored over 10 min.
Based on the proteomic results, we first examined whether PVS, PVSN and Bay 11-7082 affected the activity of glutathione reductase (FIG. 5). All compounds were ineffective in inhibiting glutathione reductase at 10 μM. However, PVSN and Bay 11-7082 at 50 μM inhibited the activity of glutathione reductase by 61% and 74%, respectively. […]

PTPs in HeLa cells = test: Phosphotyrosine levels in HeLa cells (PTP inhibition, immunoblot); type: cell-based; settings: 10 and 100 μM for 5 min
Description: FIG. 4 describes use of anti-PVS in recognition of PVSN and Bay 11-7082 adducts.
We next examined whether anti-PVS antiserum can be used in detection of target proteins probed by PVS analogs such as PVSN and Bay 11-7082. Treatment of PVSN and Bay 11-7082 at concentrations of 10 and 100 μM for 5 min increased the levels of phosphotyrosine modification in HeLa cells, especially Bay 11-7082 at 100 μM (FIG. 4) confirming their effects in PTP inhibition. PVSN-tagged proteins were abundantly recognized by anti-PVS antiserum (FIG. 5A), but only few Bay 11-7082-tagged proteins were detected by the anti-PVS antiserum (FIG. 5B). Therefore, anti-PVS antiserum can be readily used in the detection of proteins modified by PVS and PVSN.

T1 sequence (Q99873 whole entry): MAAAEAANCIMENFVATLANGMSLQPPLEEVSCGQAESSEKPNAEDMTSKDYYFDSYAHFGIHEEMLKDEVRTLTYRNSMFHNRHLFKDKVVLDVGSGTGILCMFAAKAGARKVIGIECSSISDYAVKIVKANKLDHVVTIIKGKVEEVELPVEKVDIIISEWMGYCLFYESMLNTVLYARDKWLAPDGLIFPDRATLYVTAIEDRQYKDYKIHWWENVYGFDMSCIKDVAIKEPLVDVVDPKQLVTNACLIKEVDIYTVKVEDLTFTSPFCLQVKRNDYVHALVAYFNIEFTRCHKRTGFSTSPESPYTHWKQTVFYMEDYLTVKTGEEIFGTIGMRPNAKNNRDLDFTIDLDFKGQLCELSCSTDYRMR

## CN(C)C/C=C/C(=O)Nc1cc2c(Nc3ccc(F)c(Cl)c3)ncnc2cc1O[C@H]1CCOC1 [afatinib]
PC-9 cells
  concentration at which labeling signals were readily observed: 1 µM

## C=CS(=O)(=O)c1ccccc1 [PVS, Phenyl vinyl sulfone]
[1]
  levels of protein ADMA in cell culture: did not change
Recombinant PRMT1
  concentration that caused significant inhibition of methylation of histone H4: 10 µM
  IC50: 23.3 µM

## C=CS(=O)(=O)CC [EVS, ethyl vinyl sulfone]
[2]; HeLa cells pretreated at 100 μM and 1 mM for 30 min, then 100 μM PVS 1 h
  PVS modification: significantly attenuated

## Nc1ccn([C@@H]2O[C@H](CO)[C@@H](O)C2(F)F)c(=O)n1 [gemcitabine]
Recombinant RRM1 or RRM2
  afatinib labeling: almost completely blocked

## Cc1ccc(S(=O)(=O)/C=C/C#N)cc1 [Bay 11-7082]
[3]; at 50 μM
  inhibited the activity of glutathione reductase by: 74%
[1]; 3 h
  levels in ADMA of 25 and 35 kDa: led to decline
Recombinant PRMT1
  concentration that caused significant inhibition of methylation of histone H4: 2.5 µM
  IC50: 10.7 µM
PTPs in HeLa cells
  levels of phosphotyrosine modification: increased

## O=C1C(SCCO)=C(SCCO)C(=O)c2ccccc21 [NSC 95397]
[2]; in vitro and in cellulo
  blocking of PVS tagging, comparison: blocked PVS tagging better than BVT 948

## C=CS(=O)(=O)Oc1ccccc1 [PVSN, phenyl vinyl sulfonate]
[3]; read-out: inhibited the activity of glutathione reductase by
  inhibition at 50 µM: 61%
[1]
  levels of protein ADMA in cell culture: decreased the levels of protein ADMA slightly
Recombinant PRMT1
  concentration that caused significant inhibition of methylation of histone H4: 5 µM
  IC50: 10.4 µM
PTPs in HeLa cells
  levels of phosphotyrosine modification: increased

## O=C(Nc1ccc2c(O)cc(S(=O)(=O)O)cc2c1)Nc1ccc2c(O)cc(S(=O)(=O)O)cc2c1 [AMI-1]
[1]
  levels of protein ADMA in cell culture: little effect

## pervanadate
[2]; HeLa cell lysate, 1 mM together with 100 μM PVS
  tagging of PVS: almost completely blocked
[2]; HeLa cells pretreated with 1 mM for 30 min
  tagging of PVS: completely blocked
